According to patent US20130131008A1, “LIPOPHILIC MONOPHOSPHORYLATED DERIVATIVES AND NANOPARTICLES” (BOARD OF REGENTS, THE UNIVERSITY OF TEXAS SYSTEM, priority 2011, published 2013):

What was measured:
[1] = tested on: PANC-1 cells; assay: Trypan blue exclusion assay of cell viability; assay type: cell-based, human; conditions: 400 μM
Experimental: Cell viability was determined using a trypan blue exclusion assay. Data shown are mean±S.D. (S.D.: standard deviation) (n=3). Experiment was repeated twice.

[2] = biological target: T1, dCDA partially purified from BxPC-3 cells (Homo sapiens, UniProt P32320); assay: dCDA activity (competition) assay, conversion of dCyd to dUrd; assay type: biochemical; conditions: 0.5 mM dCyd, 37° C., 15 min; inhibitor […] (FIG. 2B)
T1 construct: dCDA was partially purified from BxPC-3 cells as previously described; endogenous in cells; host or cells: BxPC-3 (ATCC CRL-1687), 40-55% ammonium sulfate fraction of the cell lysate
Experimental: Proton NMR spectra were recorded on a 300 MHz Varian UNITYplus™ or a 500 MHz Varian INOVA. Chemical shifts (δ) of ^1H NMR spectra were recorded in parts per million (ppm) relative to tetramethylsilane (TMS), which was the reference (δ=0 ppm). ^1H NMR data are reported according to the following order: chemical shift, integration (i.e., number of hydrogen atoms), multiplicity (s=singlet, d=doublet, t=triplet, q=quartet, m=multiplet, br=broad, brs=broad singlet), and coupling constant in Hertz (Hz). […] The concentrations of dCyd and dUrd in the dCDA assay were determined using an Agilent 1260 Infinity high performance liquid chromatography (HPLC) with an Agilent ZORBAX® Eclipse Plus C18 column (4.6×150 mm, 5 μm) attached to a ZORBAX® Eclipse Plus guard column (Agilent Technologies, Inc., Santa Clara, Calif.).
dCDA was partially purified from BxPC-3 cells as previously described. […] Protein concentration was measured using Bradford reagent from Sigma-Aldrich. […] The mixture was centrifuged at 10,000 g for 1 min, and the upper layer was analyzed using HPLC (detection wavelength, 260 nm; mobile phase, 10% methanol in water). The relevant peaks were quantified to determine the concentrations of dCyd and dUrd. […]

T1 sequence (P32320 whole entry): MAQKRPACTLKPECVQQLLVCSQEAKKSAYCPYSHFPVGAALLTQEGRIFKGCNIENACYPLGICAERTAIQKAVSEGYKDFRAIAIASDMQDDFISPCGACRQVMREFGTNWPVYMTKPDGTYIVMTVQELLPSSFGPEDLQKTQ

Cl.Nc1ccn([C@@H]2O[C@H](CO)[C@@H](O)C2(F)F)c(=O)n1 [Gemcitabine HCl, 2′,2′-difluorodeoxycytidine HCl, reference compound]
Time to kill 50% of PANC-1 cells [1]: 116 h
Inhibition of the deamination of dCyd (conversion to dUrd) by dCDA [2]: competitively inhibited the conversion of dCyd to dUrd
